Experimental data from patent US20070037817A1, “Acetylenic piperazines as metabotropic glutamate receptor antagonists” (AstraZeneca AB, priority 2005, published 2007).

Biological target: T1, human mGluR5d (Homo sapiens, UniProt P41594)
T1 construct: expressed in transfected cells; host or cells: GHEK (HEK cells expressing a glutamate transporter) for the IP3 assay
Assay: Functional assessment of mGluR5 antagonism in cell lines expressing mGluR5d (FLIPR [Ca2+]i mobilization assay / IP3 turnover assay; assay behind the values not specified)
Format: cell-based
Conditions: assays described herein (FLIPR or IP3), cells expressing human mGluR5d
Text: The pharmacological properties of the compounds of the invention can be analyzed using standard assays for functional activity. Examples of glutamate receptor assays are well known in the art as described in for example Aramori et al., Neuron 8:757 (1992), Tanabe et al., Neuron 8:169 (1992), Miller et al., J. Neuroscience 15: 6103 (1995), Balazs, et al., J Neurochemistry 69:151 (1997). The methodology described in these publications is incorporated herein by reference. Conveniently, the compounds of the invention can be studied by means of an assay that measures the mobilization of intracellular calcium, [Ca^2+]i in cells expressing mGluR5.
Intracellular calcium mobilization was measured by detecting changes in fluorescence of cells loaded with the fluorescent indicator fluo-3. Fluorescent signals were measured using the FLIPR system (Molecular Devices). A two addition experiment was used that could detect compounds that either activate or antagonize the receptor.
For FLIPR analysis, cells expressing human mGluR5d were seeded on collagen coated clear bottom 96-well plates with black sides and analysis of [Ca^2+]i mobilization was done 24 hours after seeding.
FLIPR experiments were done using a laser setting of 0.800 W and a 0.4 second CCD camera shutter speed. Each FLIPR experiment was initiated with 160 μL of buffer present in each well of the cell plate. After each addition of the compound, the fluorescence signal was sampled 50 times at 1 second intervals followed by 3 samples at 5 second intervals. Responses were measured as the peak height of the response within the sample period.
EC50 and IC50 determinations were made from data obtained from 8-point concentration response curves (CRC) performed in duplicate. Agonist CRC were generated by scaling all responses to the maximal response observed for the plate. Antagonist block of the agonist challenge was normalized to the average response of the agonist challenge in 14 control wells on the same plate.
We have validated a secondary functional assay for mGluR5d based on Inositol Phosphate (IP3) turnover. IP3 accumulation is measured as an index of receptor mediated phospholipase C turnover. GHEK cells stably expressing the human mGluR5d receptors were incubated with [3H] myo-inositol overnight, washed three times in HEPES buffered saline and pre-incubated for 10 min. with 10 mM LiCl. Compounds (agonists) were added and incubated for 30 min. at 37° C. Antagonist activity was determined by pre-incubating test compounds for 15 min., then incubating in the presence of glutamate (80 μM) or DHPG (30 μM) for 30 min. Reactions were terminated by the addition of perchloric acid (5%). Samples were collected and neutralized, and inositol phosphates were separated using Gravity-Fed Ion-Exchange Columns.
Functional assessment of mGluR5 Antagonism in Cell Lines Expressing mGluR5D
The properties of the compounds of the invention can be analyzed using standard assays for pharmacological activity. Examples of glutamate receptor assays are well known in the art as described in for example Aramori et al., Neuron 8:757 (1992), Tanabe et al., Neuron 8:169 (1992), Miller et al., J. Neuroscience 15: 6103 (1995), Balazs, et al., J. Neurochemistry 69:151 (1997). The methodology described in these publications is incorporated herein by reference. Conveniently, the compounds of the invention can be studied by means of an assay (FLIPR) that measures the mobilization of intracellular calcium, [Ca^2+]i in cells expressing mGluR5 or another assay (IP3) that measures inositol phosphate turnover.
Cells expressing human mGluR5d as described in WO97/05252 are seeded at a density of 100,000 cells per well on collagen coated clear bottom 96-well plates with black sides and experiments are done 24 h following seeding. All assays are done in a buffer containing 127 mM NaCl, 5 mM KCl, 2 mM MgCl2, 0.7 mM NaH2PO4, 2 mM CaCl2, 0.422 mg/ml NaHCO3, 2.4 mg/ml HEPES, 1.8 mg/ml glucose and 1 mg/ml BSA Fraction IV (pH 7.4). […]

T1 sequence (P41594 21-942 isoform P41594-3 limits assumed): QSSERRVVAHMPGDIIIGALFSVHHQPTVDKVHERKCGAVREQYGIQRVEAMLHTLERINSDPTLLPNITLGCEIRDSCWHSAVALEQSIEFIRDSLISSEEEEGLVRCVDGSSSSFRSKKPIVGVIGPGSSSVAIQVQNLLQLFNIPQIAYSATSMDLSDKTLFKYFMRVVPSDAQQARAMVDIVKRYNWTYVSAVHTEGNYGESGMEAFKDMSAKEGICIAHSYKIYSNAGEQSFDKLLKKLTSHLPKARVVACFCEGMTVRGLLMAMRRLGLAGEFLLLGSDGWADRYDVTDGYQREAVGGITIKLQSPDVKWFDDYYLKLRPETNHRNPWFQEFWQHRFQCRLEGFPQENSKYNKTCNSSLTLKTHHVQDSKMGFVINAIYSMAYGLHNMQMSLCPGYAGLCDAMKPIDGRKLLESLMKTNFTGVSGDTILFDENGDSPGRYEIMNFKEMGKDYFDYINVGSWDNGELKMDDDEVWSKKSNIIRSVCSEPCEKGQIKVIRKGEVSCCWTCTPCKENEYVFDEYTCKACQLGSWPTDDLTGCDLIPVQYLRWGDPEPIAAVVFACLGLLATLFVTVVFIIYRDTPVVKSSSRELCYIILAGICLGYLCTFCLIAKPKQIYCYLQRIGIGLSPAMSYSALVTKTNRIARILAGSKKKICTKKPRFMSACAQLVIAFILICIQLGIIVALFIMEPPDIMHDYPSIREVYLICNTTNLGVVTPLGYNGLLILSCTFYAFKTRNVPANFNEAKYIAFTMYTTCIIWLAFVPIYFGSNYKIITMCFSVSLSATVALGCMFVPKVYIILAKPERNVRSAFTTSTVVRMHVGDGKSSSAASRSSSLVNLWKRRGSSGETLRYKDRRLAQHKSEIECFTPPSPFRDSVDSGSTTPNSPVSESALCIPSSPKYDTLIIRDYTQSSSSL

| IC50 [nM] | Compound |
| --- | --- |
| 23 | COC(=O)c1cccnc1N1CCN2[C@@H](CC[C@@H]2C#Cc2cccc(Cl)c2)C1 (racemic) [Example 13.12, (±)-methyl 2-[(6R,8aS)-6-[(3-chloro-phenyl)ethynyl]hexahydropyrrolo[1,2-a]pyrazin-2(1H)-yl]nicotinate] |
| 439 | N#Cc1nccnc1N1CCN2[C@@H](CC[C@@H]2C#Cc2nccs2)C1 (racemic) [Example 14.26, (±)-3-[(6R,8aS)-6-(1,3-thiazol-2-yl-ethynyl)hexahydropyrrolo[1,2-a]pyrazin-2(1H)-yl]pyrazine-2-carbonitrile] |
| 20 | N#Cc1cccc(C#C[C@H]2CCC[C@H]3CN(c4ncccc4C#N)CCN32)c1 (racemic) [Example 18.3, (±)-2-{(6R,9aS)-6-[(3-cyanophenyl)ethynyl]octahydro-2H-pyrido[1,2-a]pyrazin-2-yl}nicotinonitrile] |
| 83 | N#Cc1cc(F)cnc1N1CCN2[C@@H](CCC[C@@H]2C#Cc2ccccn2)C1 (racemic) [Example 18.7, (±)-5-fluoro-2-[(6R,9aS)-6-(pyridin-2-ylethynyl)octahydro-2H-pyrido [1,2-a]pyrazin-2-yl]nicotinonitrile] |
| 187 | CCOC(=O)N1CCN2[C@@H](CC[C@H]2C#Cc2cccc(Cl)c2)C1 [Example 12.3, ethyl (6S,8aS)-6-[(3-chloro-phenyl)ethynyl]hexahydropyrrolo[1,2-a]pyrazine-2(1H)-carboxylate] |
| 486 | N#Cc1ccc(N2CCN3[C@@H](CC[C@H]3C#Cc3cccc(Cl)c3)C2)nc1 [Example 13.3, 6-[(6S,8aS)-6-[(3-chlorophenyl)ethynyl]hexahydropyrrolo[1,2-a]pyrazin-2(1H)-yl]nicotinonitrile] |
